Legend:
[1] = system: isolated trachea; assay: Allergen (OA)-induced contraction of isolated trachea from sensitized guinea pigs; design: species or system guinea pig; conditions: Study 3, 30 µM compound
Procedure: The effects of a number of the compounds described herein on allergen-induced bronchoconstriction were evaluated for anti-asthma activity. The ability of a compound to inhibit allergen-induced decreases in lung function in sensitized guinea pigs in response to antigen-challenge is indicative of anti-asthma activity. In particular, the model system is useful in the evaluation of the potential effects of a compound in the treatment of the early asthmatic reaction (EAR) when severe bronchoconstriction occurs.
Guinea pigs were exposed to a nebulized solution of 1% ovalbumin (OA) in saline for 15 min. […] Tracheal rings were prepared and bathed in Krebs-Henseleit solution at 37°C and aerated with 5% CO2 in O2. Tissues were suspended under a resting tension of 2 g and isometric contractions were measured using force-displacement transducers coupled to a polygraph. Tissues were incubated with each compound or 0.1% dimethylsulfoxide (as a control) for 20 min, after which increasing concentrations of OA (0.001 - 100 µg/ml) were added to the tissue. After the final concentration of OA was added and the response was recorded, the tissues were stimulated with 100 µM methacholine which caused maximum contraction of the trachea. The magnitude of the contraction induced by OA in the presence of each compound was expressed as a percentage of the maximum contraction obtained using methacholine (100 µM).

[2] = system: sensitized guinea pigs; assay: Allergen-induced changes in lung resistance and lung compliance in vivo; design: species or system guinea pig; conditions: 50 µg/kg inhalation
Procedure: In addition, the effect of compounds of the invention on lung function in vivo was determined in sensitized animals as follows: • Female Cam Hartley guinea pigs (350-400 g) are sensitized to ovalbumin by exposure of the guinea pigs to a nebulized solution of 1% ovalbumin in saline for 15 minutes. After 10-12 days, the animals are found to be acutely sensitized to the allergen (ovalbumin). Animals are treated by oral gavage, under light halothane anesthesia, with 300 µl polyethyleneglycol-200 (PEG) or 5 mg/Kg of test compound in 300 µl of PEG. Animals are treated once daily for 4 days with the final dose administered 2 hours prior to allergen challenge. Alternatively, compounds were delivered by inhalation, using a Hudson nebulizer driven by 6psi oxygen, providing a single dose of 50 µg/Kg 20 min prior to challenge.
An animal is anaesthetized using ketamine ([…]; i.p.) and xylazine (10 mg/Kg; i.p.) and 1% halothane during the surgical procedure. A tracheostomy is performed and a water-filled esophageal cannula is inserted prior to positioning the animal in a body plethysmograph. The tracheal cannula is attached to a fixed tracheal cannula in the plethysmograph. Cardiac function is monitored using electrocardiography. The animal is paralyzed using pancuronium bromide (0.8 mg/Kg; i.m.) and ventilated with 3 ml tidal breaths using a Harvard small animal ventilator, at a frequency of 60 breaths per minute. Pulmonary resistance and dynamic lung compliance data are obtained from volume, flow and transpulmonary pressure signals using multipoint analysis.
Pulmonary function is continually monitored throughout the experiment and measurements of lung resistance and lung compliance are made at various time-points (e.g., 0, 1, 2, 3, 4, 5, 10, 20 and 30 min) following antigen challenge. Data is collected on a computer-linked physiological measurement system using DIREC Physiological recording software and analyzed using ANADAT software designed for lung mechanics measurements. This software was obtained from RHT-InfoDat Inc., Montreal, Quebec, Canada.
Once baseline resistance and compliance measurements are obtained, the animal is challenged with 6 breaths of saline. After 10 minutes, during which time no alterations in lung function should occur, the animal is challenged with 6 breaths of 2 or 3% ovalbumin in saline (as the antigen stimulus). Saline and antigen are delivered in each breath using a Hudson nebulizer.

[3] = system: sensitized Brown Norway rats; assay: Allergen-induced lung inflammation (inflammatory cells in lung lavage fluid); assay type: in vivo, rat; conditions: 5 mg/kg/day for 4 days, p.o.; OA challenge; lavage 48 hours after challenge
Description: The ability of a compound to inhibit the allergen-induced accumulation of inflammatory cells such as eosinophils and neutrophils in the lavage fluid obtained from sensitized animals is indicative of anti-asthma activity. In particular, the model system is useful in the evaluation of the effects of compounds in the treatment of the late-phase response of asthma, when lung inflammation and the second phase of bronchoconstriction is apparent.
Male Brown Norway rats (200-250 g) are sensitized to ovalbumin by an intraperitoneal injection of 1 mg ovalbumin and 100 mg aluminum hydroxide in 1 ml of sterile saline. After 21 days the animals are found to be sensitized to ovalbumin. Animals are treated with drug or vehicle (0.3 ml PEG-200) once daily for 4 days by oral gavage. The animals are challenged by exposure, for a period of 60 minutes, to nebulized solution of 0.5% ovalbumin in saline generated using a Devillbis nebulizer. The final dose of drug is given 24 hours after challenge. Forty eight hours after challenge the animals are euthanized by an overdose of halothane and the lungs are lavaged with 7 x 2 mLs of sterile saline (room temperature). The recovered lavage fluid is placed on ice and centrifuged at 1200 rpm to separate the cells from the supernatant. The cells are exposed briefly to Tris/ammonium chloride, pH 7.3 to remove any red cells, and washed in phosphate buffered saline. Cytospins of each cell sample are prepared and stained for the presence of cells containing peroxidase and for the determination of the numbers of eosinophils and neutrophils. The numbers of inflammatory cells are expressed as a percentage of the total number of cells recovered in the lavage fluid.

[4] = system: Ascaris suum sensitized sheep; assay: Allergic sheep model of asthma (specific lung resistance, hyperresponsiveness to carbachol); assay type: in vivo; conditions: 400 µg/kg 30 min prior to and 4 hrs after challenge, inhalation; -0.5 hr
Procedure: The model is conscious, where the animals are breathing spontaneously, allowing measurement of airways bronchoconstriction and acute airway hyperresponsiveness.
Sheep which were naturally sensitized to Ascaris suum (30-40 Kg) were intubated with an endotracheal tube and a balloon catheter, positioned in the lower esophagus. Pleural pressure was estimated with the esophageal catheter, while later pressure was measured with a side-hole catheter advanced through and positioned distal to the tip of the endotracheal tube. Transpulmonary pressure differences between the trachea and pleural pressures were measured with a differential pressure transducer catheter system.
The proximal end of the endotracheal tube was connected to a Fleisch pneumotachograph in order to measure flow changes. Pulmonary resistance (RL) was calculated from pressure measurements of transpulmonary pressure, respiratory volume (from digital integration of the flow signal) and flow by the mid-flow technique. SRL was calculated as RL·Vtg (Vtg=thoracic gas volume).
Aerosols generated using a disposable nebulizer, were directed into a T-piece connected to a Harvard respirator and the tracheal tube in series. […]
Specific lung resistance (SRL) was measured every 60 min for 8 hours after antigen challenge. Airways hyperresponsiveness to carbachol was measured 24 hours after the initial challenge.

3α,6α,7β-trihydroxy-17(20)-pregnene [Compound 330]
percentage contraction compared to 100µM methacholine (100%) ([1]; 0.001 µg/ml OA): 0% | percentage contraction compared to 100µM methacholine (100%) ([1]; 0.01 µg/ml OA): 1.90% | percentage contraction compared to 100µM methacholine (100%) ([1]; 0.1 µg/ml OA): 9.00% | percentage contraction compared to 100µM methacholine (100%) ([1]; 1 µg/ml OA): 17.5% | percentage contraction compared to 100µM methacholine (100%) ([1]; 10 µg/ml OA): 26.0% | percentage contraction compared to 100µM methacholine (100%) ([1]; 100 µg/ml OA): 30.0% | Lung Compliance ([2]; 1 min after challenge): 0.349±0.059 ml/cm H2O | Lung Resistance ([2]; 1 min after challenge): 0.382±0.033 cm H2O/ml/sec | Lung Compliance ([2]; 2 min after challenge): 0.213±0.046 ml/cm H2O | Lung Resistance ([2]; 2 min after challenge): 0.420±0.044 cm H2O/ml/sec | Lung Compliance ([2]; 3 min after challenge): 0.176±0.045 ml/cm H2O | Lung Resistance ([2]; 3 min after challenge): 0.420±0.051 cm H2O/ml/sec | Lung Compliance ([2]; 4 min after challenge): 0.145±0.046 ml/cm H2O | Lung Resistance ([2]; 4 min after challenge): 0.455±0.047 cm H2O/ml/sec | Lung Compliance ([2]; 5 min after challenge): 0.146±0.031 ml/cm H2O | Lung Resistance ([2]; 5 min after challenge): 0.446±0.124 cm H2O/ml/sec | Lung Compliance ([2]; 10 min after challenge): 0.138±0.022 ml/cm H2O | Lung Resistance ([2]; 10 min after challenge): 0.436±0.036 cm H2O/ml/sec | Lung Compliance ([2]; 20 min after challenge): 0.193±0.054 ml/cm H2O | Lung Resistance ([2]; 20 min after challenge): 0.413±0.076 cm H2O/ml/sec | Lung Compliance ([2]; 30 min after challenge): 0.181±0.046 ml/cm H2O | Lung Resistance ([2]; 30 min after challenge): 0.412±0.072 cm H2O/ml/sec | Lung Compliance ([2]; Baseline): 0.463±0.129 ml/cm H2O | Lung Resistance ([2]; Baseline): 0.300±0.025 cm H2O/ml/sec | Lung Compliance ([2]; OA/10 s): 0.565±0.062 ml/cm H2O | Lung Resistance ([2]; OA/10 s): 0.288±0.036 cm H2O/ml/sec | Percentage Total Cells Recovered in Lavage Fluid: Cells Stained Positive for Peroxidase [3]: 5.65 ± 2.44 % | Percentage Total Cells Recovered in Lavage Fluid: Eosinophils [3]: 1.98 ± 0.78 % | Percentage Total Cells Recovered in Lavage Fluid: Neutrophils [3]: 6.16 ± 4.54% | Specific Lung Resistance (% Baseline) [4]: 0±4 % Baseline
